SMILES strings stand for the structures. Values after ≈ are worked out from the molar mass of the structure shown. Like-named read-outs stand apart in the source and are kept apart here. A value given as a limit tells only on which side of the number the result lay.

The subject of test [1] is EC1002 aph(3′)-IV. Kind of test: organism not typed. To be noted: read-out: Compound MIC on Bacterial Strains: EC1002 aph(3′)-IV. It is filed as cell-based. As for the experimental part:
(§1) To compare microbiological activity of the test compounds, minimum inhibitory concentrations (MIC.s) were determined. Antibiotic MICs were obtained using the broth microdilution method according to Clinical and Laboratory Standards Institute (CLSI) approved guidelines (Methods for dilution antimicrobial susceptibility tests for bacteria that grow aerobically; approved standard—7th ed. CLSI document M7-A7. Clinical and Laboratory Standards Institute, Wayne, Pa., incorporated herein by reference in its entirety). Antibiotics were dissolved as specified by CLSI (Performance standards for antimicrobial susceptibility testing; Seventeenth informational supplement. CLSI document M100-S17. Clinical and Laboratory Standards Institute, Wayne, Pa., incorporated herein by reference in its entirety), and were serially diluted 2-fold in cation adjusted Mueller Hinton Broth (CaMHB) at 2× concentration. Bacterial inoculums were prepared in CaMHB by suspension of a colony from an agar plate that was prepared the previous day to obtain a final concentration of 5×10^5CFU/ml. The plates were incubated for 18 hours at 35° C. […] MIC.s were determined by reading the turbidity of plate wells using a SpectraMax Plus384 plate reader (Molecular Devices, Sunnyvale, Calif., USA) at 600 nm and were confirmed by visual inspection.
(§2) Activity of the test compounds was determined using QC strains and strains with known aminoglycoside resistance mechanisms (TABLE 3). This specific panel contained strains expressing enzymes that covalently modify N2″, N3 and N3′ positions.

The subject of test [2] is Staphylococcus aureus (ATCC 29213). Briefly: MIC, broth microdilution. As to conditions: Staphylococcus aureus. For orientation: Broth dilution looks for growth in wells or tubes with falling amounts of substance.
Test [3] relates to Sa 287 aac(6′) + aph(2″). Briefly: microbe, parasite or virus in culture. It counts as cell-based, Staphylococcus aureus. As to conditions: Staphylococcus aureus, 18 h; Table 5; read-out: Compound MIC on Bacterial Strains: Staphylococcus aureus Sa 287 aac(6′) + aph(2″). As for the experimental part: as §1
Test [4] relates to PAM3072 aac(6′)-II. Briefly: microbe, parasite or virus in culture. To be noted: Pseudomonas aeruginosa, Table 5; read-out: Compound MIC on Bacterial Strains: Pseudomonas aeruginosa PAM3072 aac(6′)-II. It counts as cell-based, Pseudomonas aeruginosa. The method, then:
as §1

The test system of test [5] is PAM3073 aac(6′)-I. Briefly: microbe, parasite or virus in culture. It counts as cell-based, Pseudomonas aeruginosa. As to conditions: Pseudomonas aeruginosa, Table 5; read-out: Compound MIC on Bacterial Strains: Pseudomonas aeruginosa PAM3073 aac(6′)-I. The method, then:
as §1

Test [6] deals with ECM6003 rmtB. Briefly: microbe, parasite or virus in culture. It is filed as cell-based, Escherichia coli. As to conditions: Escherichia coli; Table 3; read-out: Compound MIC on Bacterial Strains: ECM6003 rmtB. As for the experimental part: as §1, §2
The panel also contained a strain expressing ribosomal RNA methylase, RmtB.

In test [7] the test system is ECM6011 aph(3′)-I. Kind of test: microbe, parasite or virus in culture. It counts as cell-based, Escherichia coli. As to conditions: Escherichia coli, read-out: Compound MIC on Bacterial Strains: ECM6011 aph(3′)-I. The method, then:
as §1, §2

Test [8] relates to ECM6006 aph(3′)-III. Kind of test: microbe, parasite or virus in culture. To be noted: Escherichia coli, read-out: Compound MIC on Bacterial Strains: ECM6006 aph(3′)-III. It counts as cell-based, Escherichia coli. As for the experimental part: as §1, §2
Test [9] concerns ECM6009 aac(3)-II. Briefly: microbe, parasite or virus in culture. It counts as cell-based, Escherichia coli. To be noted: Escherichia coli, read-out: Compound MIC on Bacterial Strains: ECM6009 aac(3)-II. As for the experimental part: as §1, §2
The test system of test [10] is ECM6010 ant(2″)-I. Briefly: microbe, parasite or virus in culture. It is filed as cell-based, Escherichia coli. To be noted: Escherichia coli, read-out: Compound MIC on Bacterial Strains: ECM6010 ant(2″)-I. As for the experimental part: as §1, §2
The test system of test [11] is Escherichia coli (ATCC 25922). Briefly: MIC, broth microdilution. As to conditions: Escherichia coli.
Test [12] relates to Pseudomonas aeruginosa (ATCC 27853). Kind of test: MIC, broth microdilution. As to conditions: Pseudomonas aeruginosa.
The test system of test [13] is ACM1005 ATCC 19004. Kind of test: MIC, broth microdilution. It counts as cell-based, Acinetobacter baumannii. As to conditions: Acinetobacter baumannii, ATCC19004; Table 4; read-out: Compound MIC on Bacterial Strains: Acinetobacter baumannii ACM1005 ATCC 19004. As for the experimental part: as §1
Test [14] relates to ECM6007 aac(6′) + aph(2″). Kind of test: microbe, parasite or virus in culture. It counts as cell-based, Escherichia coli. To be noted: Escherichia coli, 18 h; Table 4; read-out: Compound MIC on Bacterial Strains: Escherichia coli ECM6007 aac(6′) + aph(2″). The method, then:
as §1

For test [15], the system named is EC1001 acc(6′)-Ib. Briefly: microbe, parasite or virus in culture. To be noted: Escherichia coli; Table 4; read-out: Compound MIC on Bacterial Strains: Escherichia coli EC1001 acc(6′)-Ib. It is filed as cell-based, Escherichia coli. The method, then: as §1
Test [16] concerns ACM1006 acc(6′)-Ib. Briefly: microbe, parasite or virus in culture. It counts as cell-based, Acinetobacter baumannii. To be noted: Acinetobacter baumannii; Table 4; read-out: Compound MIC on Bacterial Strains: Acinetobacter baumannii ACM1006 acc(6′)-Ib. The method, then: as §1
The test system of test [17] is Acinetobacter baumannii (ATCC 19606). Kind of test: MIC, broth microdilution. To be noted: Acinetobacter baumannii, ATCC19606, read-out: Compound MIC on Bacterial Strains: A. baumannii ATCC 19606.
Test [18] concerns Klebsiella pneumonia (ATCC 43816). Briefly: MIC, broth microdilution. As to conditions: Klebsiella pneumoniae, ATCC43816, read-out: Compound MIC on Bacterial Strains: K. pneumonia ATCC 43816.
Where [19] appears, read: ATCC29213, read-out: Compound MIC on Bacterial Strains: Staphylococcus aureus SAM1000 ATCC 29213, Table 5.
Where [20] appears, read: ATCC25922, read-out: Compound MIC on Bacterial Strains: ECM6000 ATCC 25922.
The mark [21] stands for this setting: ATCC27853, read-out: Compound MIC on Bacterial Strains: Pseudomonas aeruginosa PAM3034 ATCC 27853.
The mark [22] stands for this setting: ATCC29213, read-out: Compound MIC on Bacterial Strains: S. aureus ATCC 29213, QC strain, Table 2.
Setting [23] is: ATCC25922, read-out: Compound MIC on Bacterial Strains: E. coli ATCC 25922.
[24] abbreviates: ATCC25922, read-out: Compound MIC on Bacterial Strains: Escherichia coli ECM6000 ATCC 25922.
[25] abbreviates: ATCC27853, read-out: Compound MIC on Bacterial Strains: P. aeruginosa ATCC 27853.

As for `CN[C@@H]1C(O)[C@@H](OC2C(O)C(O[C@H]3O[C@H](CNCCO)CCC3N)[C@@H](N)C[C@H]2NC(=O)[C@@H](O)[C@@H](O)CN)OCC1(C)O` (some centres unmarked) [Compound 4], the MIC is 1 to 8 µg/mL (≈ 1.64 to 13.1 µM) in test [1]; 1 to 8 µg/mL (≈ 1.64 to 13.1 µM) in test [2] (setting [19]); 1 to 8 µg/mL in [3]; more than 8 µg/mL in [4]; 1 to 8 µg/mL (≈ 1.64 to 13.1 µM) in test [5]; more than 8 µg/mL in [6]. Moreover, the MIC in test [7] is less than 1 µg/mL; in test [8], 1 to 8 µg/mL (≈ 1.64 to 13.1 µM); in test [9], less than 1 µg/mL; in [10], 1 to 8 µg/mL (≈ 1.64 to 13.1 µM); in [11] (setting [20]), 1 to 8 µg/mL (≈ 1.64 to 13.1 µM); in [12] (setting [21]), 1 to 8 µg/mL (≈ 1.64 to 13.1 µM).
For `NCC[C@H](O)C(=O)N[C@@H]1C[C@H](N)[C@@H](O[C@H]2O[C@H](CN)[C@@H](O)[C@H](O)[C@H]2O)[C@H](O)[C@H]1O[C@H]1O[C@H](CO)[C@@H](O)[C@H](N)[C@H]1O` [Amikacin, reference compound], the MIC in test [1] was more than 8 µg/mL; in test [2] (setting [22]) it was 1 to 8 µg/mL (≈ 1.71 to 13.7 µM); in [2] (setting [19]) it was less than 1 µg/mL; in test [13], less than 1 µg/mL; in test [3] it was more than 8 µg/mL; in [14], less than 1 µg/mL. The MIC in [15] was more than 8 µg/mL; in test [16], 1 to 8 µg/mL (≈ 1.71 to 13.7 µM); in test [6], more than 8 µg/mL; in [17], 1 to 8 µg/mL (≈ 1.71 to 13.7 µM); in [7], 1 to 8 µg/mL (≈ 1.71 to 13.7 µM); in test [8] it was 1 to 8 µg/mL (≈ 1.71 to 13.7 µM). Besides, the MIC was less than 1 µg/mL in test [9]; 1 to 8 µg/mL (≈ 1.71 to 13.7 µM) in test [10]; less than 1 µg/mL in test [18]; 1 to 8 µg/mL (≈ 1.71 to 13.7 µM) in test [11] (setting [23]); 1 to 8 µg/mL (≈ 1.71 to 13.7 µM) in test [11] (setting [20]); 1 to 8 µg/mL (≈ 1.71 to 13.7 µM) in [11] (setting [24]). For the same compound, the MIC in test [12] (setting [25]) and in test [12] (setting [21]) was 1 to 8 µg/mL (≈ 1.71 to 13.7 µM) each time.
`CN[C@@H]1[C@@H](O)[C@@H](O[C@@H]2[C@@H](O)[C@H](O[C@H]3O[C@H](CNCCO)CC[C@H]3N)[C@@H](N)C[C@H]2NC(=O)[C@@H](O)CCCN)OC[C@]1(C)O` [Compound 40, (S)-5-amino-N-((1R,2S,3S,4R,5S)-5-amino-4-((2R,3R,6S)-3-amino-6-((2-hydroxyethylamino)methyl)tetrahydro-2H-pyran-2-yloxy)-2-((2R,3R,4R,5R)-3,5-dihydroxy-5-methyl-4-(methylamino)tetrahydro-2H-pyran-2-yloxy)-3-hydroxycyclohexyl)-2-hydroxypentanamide]: the MIC in test [1] was 1 to 8 µg/mL (≈ 1.64 to 13.1 µM); in test [2] (setting [22]) it was 1 to 8 µg/mL (≈ 1.64 to 13.1 µM); in test [2] (setting [19]), 1 to 8 µg/mL (≈ 1.64 to 13.1 µM); in test [13], 1 to 8 µg/mL (≈ 1.64 to 13.1 µM); in test [4], more than 8 µg/mL; in test [5] it was 1 to 8 µg/mL (≈ 1.64 to 13.1 µM). In addition, the MIC was less than 1 µg/mL in test [14]; 1 to 8 µg/mL (≈ 1.64 to 13.1 µM) in test [15]; 1 to 8 µg/mL (≈ 1.64 to 13.1 µM) in test [16]; more than 8 µg/mL in test [6]; more than 8 µg/mL in test [17]; less than 1 µg/mL in [7]. The MIC in test [8] was 1 to 8 µg/mL (≈ 1.64 to 13.1 µM); in test [9], less than 1 µg/mL; in test [10] it was less than 1 µg/mL; in [18], less than 1 µg/mL; in test [11] (setting [23]), 1 to 8 µg/mL (≈ 1.64 to 13.1 µM); in test [11] (setting [20]) it was 1 to 8 µg/mL (≈ 1.64 to 13.1 µM). Further, the MIC in test [11] (setting [24]) was 1 to 8 µg/mL (≈ 1.64 to 13.1 µM); in [12] (setting [25]) it was more than 8 µg/mL; in test [12] (setting [21]), more than 8 µg/mL.
For `CN[C@@H]1C(O)[C@@H](OC2C(O)C(O[C@H]3O[C@H](CN)CCC3N)[C@@H](N)C[C@H]2NC(=N)CO)OCC1(C)O` (stereo partly drawn) [Compound 22, N-((1R,2S,3S,4R,5S)-5-amino-4-((2R,3R,6S)-3-amino-6-(aminomethyl)tetrahydro-2H-pyran-2-vlxy)-2-((2R,3R,4R,5R)-3,5-dihydroxy-5-methyl-4-(methylamino)tetrahydro-2H-pyran-2-yloxy)-3-hydroxycyclohexyl)-2-hydroxy acetimidamide], the MIC in test [1] was 1 to 8 µg/mL (≈ 1.97 to 15.8 µM); in test [2] (setting [22]) it was less than 1 µg/mL; in [2] (setting [19]), less than 1 µg/mL; in test [13], 1 to 8 µg/mL (≈ 1.97 to 15.8 µM); in [4], more than 8 µg/mL; in test [5] it was 1 to 8 µg/mL (≈ 1.97 to 15.8 µM). Moreover, the MIC in test [14] is 1 to 8 µg/mL; in [15] it was more than 8 µg/mL; in [16] it was more than 8 µg/mL; in test [6], more than 8 µg/mL; in test [17], more than 8 µg/mL; in test [7], 1 to 8 µg/mL (≈ 1.97 to 15.8 µM). For the same compound, the MIC in test [8] was 1 to 8 µg/mL (≈ 1.97 to 15.8 µM); in test [9], more than 8 µg/mL; in test [10] it was more than 8 µg/mL; in [18], less than 1 µg/mL; in [11] (setting [23]), 1 to 8 µg/mL (≈ 1.97 to 15.8 µM); in test [11] (setting [20]) it was 1 to 8 µg/mL (≈ 1.97 to 15.8 µM). The results for the MIC in [11] (setting [24]), in [12] (setting [25]) and in test [12] (setting [21]) were 1 to 8 µg/mL (≈ 1.97 to 15.8 µM), less than 1 µg/mL and 1 to 8 µg/mL (≈ 1.97 to 15.8 µM), respectively.
